According to US20260224524A1, “A PHARMACEUTICAL COMPOSITION TARGETING MUTANT P53 AND HER2” (DR DOZO LABORATORIES, priority 2023, published 2026):
≈ marks a conversion by molar mass, not a printed value.

Key:
[1] = test system: Human Lung Cancer Cell Line A-549; experiment: Growth inhibition (% control growth, LC50, TGI, GI50) A-549; type: cell-based
Procedure: The therapeutic effect of SA1 (peak 5) and SA2 (peak 4) is evaluated against human lung cancer cell line A-549 by calculating the percentage growth inhibition, drug concentration of test compound needed to inhibit cell growth by 50% (GI50) values.
The therapeutic effect of SACC is evaluated against human lung cancer cell line A-549 by calculating the percentage growth inhibition, drug concentration of test compound needed to inhibit cell growth by 50% (GI50) values.

[2] = Human tumour xenograft MDA-MB-231 model, survival; type: in vivo; conditions: for % Survival: Group B, 2.5 mg/kg i.v. day 1, 5, 9
Procedure: The therapeutic effect of SACC is evaluated against triple-negative breast cancer cell line MDA-MB-231 by analysing tumour volume and relative tumour volume. The study involved the use of six mice. These mice were administrated treatment according to the following Groups: […]

[3] = test system: Human Breast Cancer Cell Line MDA-MB-231; experiment: Growth inhibition (% control growth, LC50, TGI, GI50) MDA-MB-231; type: cell-based
[4] = test system: Human Breast Cancer Cell Line MDA-MB-231; experiment: as above; type: cell-based; remark: listed apart in the source
Procedure: The therapeutic effect of […] (peak 5) and SA2 (peak 4) is evaluated against human […] cancer cell line MDA-MB-231 by calculating the percentage growth inhibition, drug concentration of test compound needed to inhibit cell growth by 50% (GI50) values.
The therapeutic effect of SACC is evaluated against human […] cancer cell lines MDA-MB-231 by calculating the percentage growth inhibition, drug concentration of test compound needed to inhibit cell growth by 50% (GI50) values.

SMILES: COc1cccc2c1C(=O)c1c(O)c3c(c(O)c1C2=O)C[C@@](O)(C(=O)CO)C[C@@H]3O[C@H]1C[C@H](N)[C@H](O)[C@H](C)O1 [ADR, Adriamycin]
- % Control Growth ([1]; A-549, 40 μg/ml, Experiment 2): −48.7%
- % Control Growth ([1]; A-549, 40 μg/ml, Experiment 3): −44.2%
- % Control Growth ([1]; A-549, 80 μg/ml, Average Values): −50.0%
- % Control Growth ([1]; A-549, 80 μg/ml, Experiment 1): −49.4%
- % Control Growth ([1]; A-549, 80 μg/ml, Experiment 2): −51.0%
- % Control Growth ([1]; A-549, 80 μg/ml, Experiment 3): −49.4%
- % Control Growth ([1]; A-549, 10^−4M, Average Values): −43.0%
- % Control Growth ([1]; A-549, 10^−4M, Experiment 1): 36.5%
- % Control Growth ([1]; A-549, 10^−4M, Experiment 2): 44.4%
- % Control Growth ([1]; A-549, 10^−4M, Experiment 3): −48.1%
- % Control Growth ([1]; A-549, 10^−5M, Average Values): −34.9%
- % Control Growth ([1]; A-549, 10^−5M, Experiment 1): −30.6%
- % Control Growth ([1]; A-549, 10^−5M, Experiment 2): −33.8%
- % Control Growth ([1]; A-549, 10^−5M, Experiment 3): −40.3%
- % Control Growth ([1]; A-549, 10^−6M, Average Values): −4.0%
- % Control Growth ([1]; A-549, 10^−6M, Experiment 1): 10.2%
- % Control Growth ([1]; A-549, 10^−6M, Experiment 2): −11.3%
- % Control Growth ([1]; A-549, 10^−6M, Experiment 3): −11.0%
- % Control Growth ([1]; A-549, 10^−7M, Average Values): 12.4%
- % Control Growth ([1]; A-549, 10^−7M, Experiment 1): 53.2%
- % Control Growth ([1]; A-549, 10^−7M, Experiment 2): 15.9%
- % Control Growth ([1]; A-549, 10^−7M, Experiment 3): −32.0%
- TGI ([1]; A-549, Molar drug concentrations calculated from graph): 4.143 µg/mL (≈ 7.62 µM)
- TGI ([1]; A-549, calculated from graph): <10 µg/mL
- GI50 ([1]; Homo sapiens, A549, A-549, calculated from graph): < 10 µg/mL
- CC50 ([1]; Homo sapiens, A549, read-out: LC50, A-549, calculated from graph): 72 µg/mL (≈ 132 µM)
- GI50 ([1]; Homo sapiens, A549, A-549, Molar drug concentrations calculated from graph): 1.2 µg/mL (≈ 2.21 µM)
- % Survival ([2]; day 1): 100%
- % Survival ([2]; day 5): 100%
- % Survival ([2]; day 9): 100%
- % Survival ([2]; day 12): 100%
- % Survival ([2]; day 15): 100%
- % Survival ([2]; day 18): 100%
- % Survival ([2]; day 21): 100%
- % Survival ([2]; day 25): 100%
- % Survival ([2]; day 30): 83%
- survival rate ([2]; till 25 days): 100%
- % Control Growth ([3]; 10 μg/ml, Experiment 2): −89.3%
- % Control Growth ([3]; 20 μg/ml, Experiment 1): −85.1%
- % Control Growth ([3]; 40 μg/ml, Experiment 1): −80.9%
- % Control Growth ([3]; 80 μg/ml, Experiment 3): −71.2%
- % Control Growth ([4]; 10 μg/ml, Average Values): −88.7%
- % Control Growth ([4]; 10 μg/ml, Experiment 1): −90.5%
- % Control Growth ([4]; 10 μg/ml, Experiment 3): −86.3%
- % Control Growth ([4]; 20 μg/ml, Average Values): −83.1%
- % Control Growth ([4]; 20 μg/ml, Experiment 2): −84.8%
- % Control Growth ([4]; 20 μg/ml, Experiment 3): −79.3%
- % Control Growth ([4]; 40 μg/ml, Average Values): −81.2%
- % Control Growth ([4]; 40 μg/ml, Experiment 2): −82.5%
- % Control Growth ([4]; 40 μg/ml, Experiment 3): −80.2%
- % Control Growth ([4]; 80 μg/ml, Average Values): −74.8%
- % Control Growth ([4]; 80 μg/ml, Experiment 1): −75.2%
- % Control Growth ([4]; 80 μg/ml, Experiment 2): −78.1%
- % Control Growth ([4]; 10^−4M, Average Values): −69.1%
- % Control Growth ([4]; 10^−4M, Experiment 1): −68.3%
- % Control Growth ([4]; 10^−4M, Experiment 2): −69.6%
- % Control Growth ([4]; 10^−4M, Experiment 3): −69.4%
- % Control Growth ([4]; 10^−5M, Average Values): −82.4%
- % Control Growth ([4]; 10^−5M, Experiment 1): −80.5%
- % Control Growth ([4]; 10^−5M, Experiment 2): −83.4%
- % Control Growth ([4]; 10^−5M, Experiment 3): −83.3%
- % Control Growth ([4]; 10^−6M, Average Values): −85.0%
- % Control Growth ([4]; 10^−6M, Experiment 1): −83.1%
- % Control Growth ([4]; 10^−6M, Experiment 2): −86.2%
- % Control Growth ([4]; 10^−6M, Experiment 3): −85.8%
- % Control Growth ([4]; 10^−7M, Average Values): −87.8%
- % Control Growth ([4]; 10^−7M, Experiment 1): −82.8%
- % Control Growth ([4]; 10^−7M, Experiment 2): −91.0%
- % Control Growth ([4]; 10^−7M, Experiment 3): −89.6%
- GI50 ([4]; Homo sapiens, calculated from graph): < 10 µg/mL
- TGI ([4]; calculated from graph): <10 µg/mL
